Tests used:
[1] = system: Mycobacterium tuberculosis; experiment: Anti-tuberculosis activity against Mycobacterium tuberculosis H37Rv assessed as inhibition of microbial growth at 6.25 ug/ml by MABA method; format: functional
[2] = system: L929; experiment: Cytotoxicity against mouse L929 cells assessed as reduction cell viability after 5 days by MTT assay; format: cell-based; conditions: l929, 120 h
[3] = system: Mycobacterium tuberculosis; experiment: Anti-tuberculosis activity against Mycobacterium tuberculosis H37Rv assessed as inhibition of microbial growth by MABA method; format: functional, organism-based
[4] = system: Mycobacterium tuberculosis; experiment: Anti-tuberculosis activity against Mycobacterium tuberculosis H37Rv assessed as inhibition of microbial growth at 3.125 ug/ml by MABA method; format: functional
[5] = system: Mycobacterium tuberculosis; experiment: Anti-tuberculosis activity against Mycobacterium tuberculosis H37Rv assessed as inhibition of microbial growth at 1.56 ug/ml by MABA method; format: functional

Compound | inhibition at 6.25 µg/mL [1] [%] | Activity [2] [µg/mL] | IC50 [3] [µM] | MIC90 [3] [µg/mL] | inhibition at 3.125 µg/mL [4] [%] | inhibition at 1.56 µg/mL [5] [%] | MIC99 [3] [µg/mL]
COC1CCCC(c2cc(C(=O)NN)nc3ccccc23)C1 (centres undefined) | 90 | > 200 | 2.95 | 6.25 |  |  | 
OC(c1cc(C23CC4CC(CC(C4)C2)C3)c2ccccc2n1)c1cccc2ccccc12 (centres undefined) | 9 | > 200 | 182 | 6.25 |  |  | 
COC(=O)c1ccc2ccccc2n1 | ≥ 90 |  |  |  |  |  | 
O=C(c1cc(C23CC4CC(CC(C4)C2)C3)c2ccccc2c1)N1CCN(c2ccccc2)CC1 | 90 | > 200 | 0.871 | 6.25 |  |  | 
CO[C@H]1CC[C@H](c2cc(C(=O)NN)nc3ccccc32)CC1 | 32 | > 200 | 32.4 | 6.25 |  |  | 
CCC(O)c1cc(C23CC4CC(CC(C4)C2)C3)c2ccccc2n1 (centres undefined) | 73 | > 200 | 6.92 | 6.25 |  |  | 
CN(C)c1ccc(C(O)c2cc(C34CC5CC(CC(C5)C3)C4)c3ccccc3n2)cc1 (centres undefined) | 4 | > 200 | 331 | 6.25 |  |  | 
OC(c1ccc(F)cc1)c1cc(C23CC4CC(CC(C4)C2)C3)c2ccccc2n1 (centres undefined) | 99 | > 200 | 0.316 | 3.12 | 99 | 69 | 
O=C(NO)c1cc(C23CC4CC(CC(C4)C2)C3)c2ccccc2c1 | 91 | > 200 | 1.17 | 6.25 |  |  | 
O=C(c1cc(C23CC4CC(CC(C4)C2)C3)c2ccccc2c1)N1CCN(c2ccccn2)CC1 | 8 | > 200 | 63.1 | 6.25 |  |  | 
CO[C@H]1CC[C@@H](c2cc(C(=O)NN)nc3ccccc32)CC1 | 90 | > 200 | 2.34 | 6.25 |  |  | 
O=C(c1cc(C23CC4CC(CC(C4)C2)C3)c2ccccc2c1)N1CCNCC1 | 82 | > 200 | 3.09 | 6.25 |  |  | 
NNC(=O)c1ccncc1 [ISONIAZID] |  |  |  |  |  |  | 0.1
O=C(c1cc(C23CC4CC(CC(C4)C2)C3)c2ccccc2c1)N1CCOCC1 | 14 | > 200 | 110 | 6.25 |  |  | 
O=C(c1cc(C23CC4CC(CC(C4)C2)C3)c2ccccc2c1)N1CCCC1 | 53 | > 200 | 13.2 | 6.25 |  |  | 
NNC(=O)c1cc(CC2CC3CCC2C3)c2ccccc2n1 (centres undefined) | 92 | > 200 | 1.95 | 6.25 |  |  | 

Compound | inhibition at 6.25 µg/mL [1] [%] | Activity [2] [µg/mL] | IC50 [3] [µM] | MIC90 [3] [µg/mL] | inhibition at 3.125 µg/mL [4] [%] | inhibition at 1.56 µg/mL [5] [%] | MIC99 [3] [µg/mL]
COC(=O)c1cc(C23CC4CC(CC(C4)C2)C3)c2ccccc2n1 | ≥ 90 |  |  |  |  |  | 
CC(C)(C)C1CCC(c2cc(C(=O)NN)nc3ccccc23)CC1 (centres undefined) | 99 | > 200 | 0.347 | 3.12 | 99 | 82 | 
CC1CCC(c2cc(C(=O)NN)nc3ccccc23)CC1 (centres undefined) | 84 | > 200 | 3.55 | 6.25 |  |  | 
Cc1ccc(C(O)c2cc(C34CC5CC(CC(C5)C3)C4)c3ccccc3n2)cc1 (centres undefined) | 76 | > 200 | 5.01 | 6.25 |  |  | 
C=CCC(O)c1cc(C23CC4CC(CC(C4)C2)C3)c2ccccc2n1 (centres undefined) | 44 | > 200 | 22.9 | 6.25 |  |  | 
COc1ccc(C(O)c2cc(C34CC5CC(CC(C5)C3)C4)c3ccccc3n2)cc1 (centres undefined) | 47 | > 200 | 83.2 | 6.25 |  |  | 
O=C(c1cc(C23CC4CC(CC(C4)C2)C3)c2ccccc2c1)N1CCCCC1 | 9 | > 200 | 120 | 6.25 |  |  | 
CCCC(O)c1cc(C23CC4CC(CC(C4)C2)C3)c2ccccc2n1 (centres undefined) | 86 | > 200 | 4.47 | 6.25 |  |  | 
OC(c1ccccc1)c1cc(C23CC4CC(CC(C4)C2)C3)c2ccccc2n1 (centres undefined) | 86 | > 200 | 3.09 | 6.25 |  |  | 
CO[C@H]1/C=C/O[C@@]2(C)Oc3c(C)c(O)c4c(O)c(c(/C=N/N5CCN(C)CC5)c(O)c4c3C2=O)NC(=O)/C(C)=C\C=C\[C@H](C)[C@H](O)[C@@H](C)[C@@H](O)[C@@H](C)[C@H](OC(C)=O)[C@@H]1C [RIFAMPIN] |  |  |  |  |  |  | 0.2
CCCCC(O)c1cc(C23CC4CC(CC(C4)C2)C3)c2ccccc2n1 (centres undefined) | 91 | > 200 | 2.19 | 6.25 |  |  | 
CC1CCCCC1c1cc(C(=O)NN)nc2ccccc12 (centres undefined) | 99 | > 200 | 0.457 | 3.12 | 99 | 77 | 
O=C(NC1CCN(Cc2ccccc2)CC1)c1cc(C23CC4CC(CC(C4)C2)C3)c2ccccc2c1 | 90 | > 200 | 1.51 | 6.25 |  |  | 
NNC(=O)c1cc(C23CC4CC(CC(C4)C2)C3)c2ccccc2n1 | 99 | > 200 | 0.389 | 3.12 | 99 | 80 | 
CN1CCN(C(=O)c2cc(C34CC5CC(CC(C5)C3)C4)c3ccccc3c2)CC1 | 87 | > 200 | 5.89 | 6.25 |  |  | 
NNC(=O)c1cc(C2CCC(C(F)(F)F)CC2)c2ccccc2n1 (centres undefined) | 89 | > 200 | 2.75 | 6.25 |  |  | 

From ChEMBL document CHEMBL3407381, “Synthesis, biological evaluation and 3D QSAR study of 2,4-disubstituted quinolines as anti-tuberculosis agents” (Eur J Med Chem, 2015)
